# Source: patent US8952024B2, “Herbicidal pyrimidone derivatives” (E I du Pont de Nemours and Company, priority 2009, dated 2015)
# How the values were obtained:
# Assay type in all cases: in vivo
# [1] = tested on: barnyardgrass (Echinochloa crus-galli); experiment: Test A pre-/postemergence plant response; details: for Barnyardgrass plant response rating: visual injury, 0 to 100 scale (0 no effect, 100 complete control), approx. ten days
# Method in brief: (§1)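 Pre: directed soil spray on seeded loam/sand blend. Post: same formulation (non-phytotoxic solvent + surfactant) on 2–10 cm plants, 1–2 leaf stage. Greenhouse ~10 d; visual injury score 0–100 vs untreated.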
# corn (Zea mays) = experiment: Test A pre-/postemergence plant response; details: for Corn plant response rating: visual injury, 0 to 100 scale (0 no effect, 100 complete control), approx. ten days
# Method in brief: as §1
# [2] = tested on: giant foxtail (Setaria faberii); experiment: Test A pre-/postemergence plant response; details: for Foxtail, Giant plant response rating: visual injury, 0 to 100 scale (0 no effect, 100 complete control), approx. ten days
# Method in brief: as §1
# [3] = tested on: large crabgrass (Digitaria sanguinalis); experiment: Test A pre-/postemergence plant response; details: for Crabgrass, Large plant response rating: visual injury, 0 to 100 scale (0 no effect, 100 complete control), approx. ten days
# Method in brief: as §1
# [4] = tested on: morningglory (Ipomoea spp.); experiment: Test A pre-/postemergence plant response; details: for Morningglory plant response rating: visual injury, 0 to 100 scale (0 no effect, 100 complete control), approx. ten days
# Method in brief: as §1
# [5] = tested on: pigweed (Amaranthus retroflexus); experiment: Test A pre-/postemergence plant response; details: for Pigweed plant response rating: visual injury, 0 to 100 scale (0 no effect, 100 complete control), approx. ten days
# Method in brief: as §1
# [6] = tested on: velvetleaf (Abutilon theophrasti); experiment: Test A pre-/postemergence plant response; details: for Velvetleaf plant response rating: visual injury, 0 to 100 scale (0 no effect, 100 complete control), approx. ten days
# Method in brief: as §1
# [7] = tested on: wheat (Triticum aestivum); experiment: Test A pre-/postemergence plant response; details: for Wheat plant response rating: visual injury, 0 to 100 scale (0 no effect, 100 complete control), approx. ten days
# Method in brief: as §1
# [8] = tested on: canarygrass (Phalaris minor); experiment: Test B postemergence plant response; details: Postemergence
# Method in brief: (§2)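 Plants at the 1- to 4-leaf stage (2 to 18 cm tall), grown in pots of peat moss/vermiculite medium with wetting agent and starter nutrients, received postemergence applications of test chemicals. After 13 to 15 days in a greenhouse, injury was rated visually against untreated controls on a 0 (no effect) to 100 (complete control) scale.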
# [9] = tested on: chickweed (Stellaria media); experiment: Test B postemergence plant response; details: Postemergence
# Method in brief: as §2
# [10] = tested on: windgrass (Apera spica-venti); experiment: Test B postemergence plant response; details: Postemergence
# Method in brief: as §2
# [11] = tested on: winter barley (Hordeum vulgare); experiment: Test B postemergence plant response; details: Postemergence
# Method in brief: as §2
# [12] = Postemergence, 125 g ai/ha, 0 to 100 scale where 0 is no effect and 100 is complete control
# [13] = Preemergence, 125 g ai/ha, 0 to 100 scale, 0 = no effect, 100 = complete control
# [14] = Preemergence, 500 g ai/ha, 0 to 100 scale, 0 = no effect, 100 = complete control
# [15] = 31 g ai/ha, 0 to 100 scale (0 no effect, 100 complete control)
# [16] = 62 g ai/ha, scale 0 to 100 (0 no effect, 100 complete control)
# [17] = 125 g ai/ha, scale 0 to 100 (0 no effect, 100 complete control)
# [18] = 250 g ai/ha, scale 0 to 100 (0 no effect, 100 complete control), 13 to 15 days
compound,measurement,setting,value
CC1(C)CC(=O)C(C(=O)c2cnc(-c3ccccc3)n(-c3ccccc3)c2=O)=C(O)C1 [Compound 225],"Plant response rating, Barnyardgrass",[1]; [12],90
same,Barnyardgrass plant response rating,"[1]; Postemergence, 500 g ai/ha",100
same,"Plant response rating, Barnyardgrass",[1]; [13],20
same,"Plant response rating, Barnyardgrass",[1]; [14],90
same,"Plant response rating, Corn",corn (Zea mays); [12],10
same,Corn plant response rating,"corn (Zea mays); Postemergence, 500 g ai/ha",50
same,"Plant response rating, Corn",corn (Zea mays); [13],0
same,"Plant response rating, Corn",corn (Zea mays); [14],20
same,"Plant response rating, Foxtail, Giant",[2]; [12],70
same,"Foxtail, Giant plant response rating","[2]; Postemergence, 500 g ai/ha",90
same,"Plant response rating, Foxtail, Giant",[2]; [13],40
same,"Plant response rating, Foxtail, Giant",[2]; [14],80
same,"Plant response rating, Crabgrass, Large",[3]; [12],90
same,"Crabgrass, Large plant response rating","[3]; Postemergence, 500 g ai/ha",100
same,"Plant response rating, Crabgrass, Large",[3]; [13],60
same,"Plant response rating, Crabgrass, Large",[3]; [14],100
same,"Plant response rating, Morningglory",[4]; [12],100
same,Morningglory plant response rating,"[4]; Postemergence, 500 g ai/ha",100
same,"Plant response rating, Morningglory",[4]; [13],30
same,"Plant response rating, Morningglory",[4]; [14],80
same,"Plant response rating, Pigweed",[5]; [12],100
same,Pigweed plant response rating,"[5]; Postemergence, 500 g ai/ha",100
same,"Plant response rating, Pigweed",[5]; [13],90
same,"Plant response rating, Pigweed",[5]; [14],100
same,"Plant response rating, Velvetleaf",[6]; [12],100
same,Velvetleaf plant response rating,"[6]; Postemergence, 500 g ai/ha",100
same,"Plant response rating, Velvetleaf",[6]; [13],80
same,"Plant response rating, Velvetleaf",[6]; [14],100
same,"Plant response rating, Wheat",[7]; [12],0
same,Wheat plant response rating,"[7]; Postemergence, 500 g ai/ha",40
same,"Plant response rating, Wheat",[7]; [13],0
same,"Plant response rating, Wheat",[7]; [14],30
same,"Plant response rating, Canarygrass","[8]; 16 g ai/ha, 0 to 100 scale",55
same,"Plant response rating, Canarygrass",[8]; [15],60
same,"Plant response rating, Canarygrass",[8]; [16],85
same,"Plant response rating, Canarygrass",[8]; [17],85
same,"Plant response rating, Chickweed","[9]; 16 g ai/ha, 0 to 100 scale",15
same,"Plant response rating, Chickweed",[9]; [15],25
same,"Plant response rating, Chickweed",[9]; [16],40
same,"Plant response rating, Chickweed",[9]; [17],95
same,"Plant response rating, Windgrass","[10]; 16 g ai/ha, 0 to 100 scale",5
same,"Plant response rating, Windgrass",[10]; [15],50
same,"Plant response rating, Windgrass",[10]; [16],55
same,"Plant response rating, Barley","[11]; 16 g ai/ha, 0 to 100 scale",5
same,"Plant response rating, Barley",[11]; [15],20
same,"Plant response rating, Barley",[11]; [16],35
same,"Plant response rating, Barley",[11]; [17],40
CCCn1c(-c2ccsc2)ncc(C(=O)C2=C(O)C3CCC(C3)C2=O)c1=O (stereo not drawn) [Compound 227],"Plant response rating, Barnyardgrass",[1]; [12],90
same,Barnyardgrass plant response rating,"[1]; Postemergence, 500 g ai/ha",90
same,"Plant response rating, Barnyardgrass",[1]; [13],50
same,"Plant response rating, Barnyardgrass",[1]; [14],100
same,"Plant response rating, Corn",corn (Zea mays); [12],10
same,Corn plant response rating,"corn (Zea mays); Postemergence, 500 g ai/ha",60
same,"Plant response rating, Corn",corn (Zea mays); [13],0
same,"Plant response rating, Corn",corn (Zea mays); [14],10
same,"Plant response rating, Foxtail, Giant",[2]; [12],90
same,"Foxtail, Giant plant response rating","[2]; Postemergence, 500 g ai/ha",90
same,"Plant response rating, Foxtail, Giant",[2]; [13],40
same,"Plant response rating, Foxtail, Giant",[2]; [14],80
same,"Plant response rating, Crabgrass, Large",[3]; [12],90
same,"Crabgrass, Large plant response rating","[3]; Postemergence, 500 g ai/ha",100
same,"Plant response rating, Crabgrass, Large",[3]; [13],90
same,"Plant response rating, Crabgrass, Large",[3]; [14],100
same,"Plant response rating, Morningglory",[4]; [12],100
same,Morningglory plant response rating,"[4]; Postemergence, 500 g ai/ha",100
same,"Plant response rating, Morningglory",[4]; [13],50
same,"Plant response rating, Morningglory",[4]; [14],80
same,"Plant response rating, Pigweed",[5]; [12],100
same,Pigweed plant response rating,"[5]; Postemergence, 500 g ai/ha",100
same,"Plant response rating, Pigweed",[5]; [13],80
same,"Plant response rating, Pigweed",[5]; [14],100
same,"Plant response rating, Velvetleaf",[6]; [12],100
same,Velvetleaf plant response rating,"[6]; Postemergence, 500 g ai/ha",100
same,"Plant response rating, Velvetleaf",[6]; [13],90
same,"Plant response rating, Velvetleaf",[6]; [14],100
same,"Plant response rating, Wheat",[7]; [12],0
same,Wheat plant response rating,"[7]; Postemergence, 500 g ai/ha",0
same,"Plant response rating, Wheat",[7]; [13],0
same,"Plant response rating, Wheat",[7]; [14],10
same,"Plant response rating, Canarygrass",[8]; [15],0
same,"Plant response rating, Canarygrass",[8]; [16],0
same,"Plant response rating, Canarygrass",[8]; [17],5
same,"Plant response rating, Canarygrass",[8]; [18],10
same,"Plant response rating, Chickweed",[9]; [15],65
same,"Plant response rating, Chickweed",[9]; [16],75
same,"Plant response rating, Chickweed",[9]; [17],80
same,"Plant response rating, Chickweed",[9]; [18],90
same,"Plant response rating, Windgrass",[10]; [15],0
same,"Plant response rating, Windgrass",[10]; [16],30
same,"Plant response rating, Windgrass",[10]; [18],50
same,"Plant response rating, Barley",[11]; [15],0
same,"Plant response rating, Barley",[11]; [16],5
same,"Plant response rating, Barley",[11]; [17],5
same,"Plant response rating, Barley",[11]; [18],30
COCCn1c(-c2ccsc2)ncc(C(=O)C2=C(O)C3CCC(C3)C2=O)c1=O (stereo not drawn) [Compound 228],"Plant response rating, Barnyardgrass",[1]; [12],90
same,Barnyardgrass plant response rating,"[1]; Postemergence, 500 g ai/ha",90
same,"Plant response rating, Barnyardgrass",[1]; [13],40
same,"Plant response rating, Barnyardgrass",[1]; [14],100
same,"Plant response rating, Corn",corn (Zea mays); [12],50
same,Corn plant response rating,"corn (Zea mays); Postemergence, 500 g ai/ha",90
same,"Plant response rating, Corn",corn (Zea mays); [13],0
same,"Plant response rating, Corn",corn (Zea mays); [14],50
same,"Plant response rating, Foxtail, Giant",[2]; [12],90
same,"Foxtail, Giant plant response rating","[2]; Postemergence, 500 g ai/ha",90
same,"Plant response rating, Foxtail, Giant",[2]; [13],50
same,"Plant response rating, Foxtail, Giant",[2]; [14],90
same,"Plant response rating, Crabgrass, Large",[3]; [12],90
same,"Crabgrass, Large plant response rating","[3]; Postemergence, 500 g ai/ha",100
same,"Plant response rating, Crabgrass, Large",[3]; [13],100
same,"Plant response rating, Crabgrass, Large",[3]; [14],100
same,"Plant response rating, Morningglory",[4]; [12],100
same,Morningglory plant response rating,"[4]; Postemergence, 500 g ai/ha",100
same,"Plant response rating, Morningglory",[4]; [13],70
same,"Plant response rating, Morningglory",[4]; [14],80
same,"Plant response rating, Pigweed",[5]; [12],100
same,Pigweed plant response rating,"[5]; Postemergence, 500 g ai/ha",100
same,"Plant response rating, Pigweed",[5]; [13],100
same,"Plant response rating, Pigweed",[5]; [14],100
same,"Plant response rating, Velvetleaf",[6]; [12],100
same,Velvetleaf plant response rating,"[6]; Postemergence, 500 g ai/ha",100
same,"Plant response rating, Velvetleaf",[6]; [13],100
same,"Plant response rating, Velvetleaf",[6]; [14],100
same,"Plant response rating, Wheat",[7]; [12],0
same,Wheat plant response rating,"[7]; Postemergence, 500 g ai/ha",20
same,"Plant response rating, Wheat",[7]; [13],0
same,"Plant response rating, Wheat",[7]; [14],0
same,"Plant response rating, Canarygrass",[8]; [15],0
same,"Plant response rating, Canarygrass",[8]; [16],0
same,"Plant response rating, Canarygrass",[8]; [17],5
same,"Plant response rating, Canarygrass",[8]; [18],10
same,"Plant response rating, Chickweed",[9]; [15],98
same,"Plant response rating, Chickweed",[9]; [16],100
same,"Plant response rating, Chickweed",[9]; [17],100
same,"Plant response rating, Chickweed",[9]; [18],100
same,"Plant response rating, Windgrass",[10]; [15],5
same,"Plant response rating, Windgrass",[10]; [16],50
same,"Plant response rating, Windgrass",[10]; [18],90
same,"Plant response rating, Barley",[11]; [15],0
same,"Plant response rating, Barley",[11]; [16],5
same,"Plant response rating, Barley",[11]; [17],40
same,"Plant response rating, Barley",[11]; [18],40
